Measured values taken from US5573999A, “β-substituted cinnamic acid derivative” (BASF Aktiengesellschaft, priority 1991, dated 1996).

Tests used:
[1] = test system: wheat mildew (Erysiphe graminis var. tritici); assay: Activity against wheat mildew on wheat seedlings; format: in vivo; settings: aqueous dispersion containing 250 ppm active ingredient, assessed after 7 days
Description: Leaves of pot-grown wheat seedlings of the Fruhgold variety were sprayed with an aqueous liquor which contained 80% of active ingredient and 20% of emulsifier in dry matter and, 24 hours after the sprayed-on layer had dried, were dusted with spores of wheat mildew (Erysiphe graminis var. tritici). The test plants were then placed in a greenhouse at from 20° to 22° C. and from 75 to 80% relative humidity. The extent of mildew spread was assessed after 7 days.

[2] = test system: mitochondrial respiration; assay: Inhibition of mitochondrial respiration (rate of reduction of cytochrome c in isolated mitochondria), yeast; format: biochemical, Saccharomyces cerevisiae; settings: DMSO control
Source text: In order to determine the effect of the compounds according to the invention on mitochondrial respiration it is first necessary to isolate the mitochondria from the organisms being investigated. For this, in the case of the yeast Saccharomyces cerevisiae, the cells in a 30 to 40% strength suspension of the yeast in an aqueous solution of 0.6M mannitol+0.01M tris[hydroxymethyl]-aminomethane+0.002M disodium ethylenediaminetetraacetate (pH 6.8) are disrupted in a glass bead mill, and the extract is fractionated by differential centrifugation at 1000× g and 12000× g. The mitochondria are in the pellet from the 12000× g centrifugation.
(§1) Used as control is a mixture with the equivalent amount of pure DMSO. The inhibition at the concentration of agent in each case is then calculated as follows [formula] where ΔE is the change in extinction, at is the change in time, [formula] is the reaction rate for the control and [formula] is the reaction rate for the sample x.
(§2) The inhibition was determined in each case at a test substance concentration of 1.8/10^-5mol/l .

[3] = test system: Pyricularia oryzae; format: in vivo; settings: aqueous dispersion containing 250 ppm active ingredient; rice seedlings, protective, assessed after 6 days
[4] = test system: mitochondrial respiration; assay: Inhibition of mitochondrial respiration (rate of reduction of cytochrome c in isolated mitochondria), house fly; format: biochemical, Musca domestica; settings: DMSO control
Source text: (§3) It is also possible similarly to isolate mitochondria from other organisms, e.g. from the phytopathogenic fungus Drechslera sorokiniana (synonym: Helminthosporium sativum), from the dermatophyte Trichophyton mentagrophytes, which is a human pathogen, and, for example, from the house fly (Musca domestica) as insect or from the spider mite Tetranychus urticae.
as §1, §2

[5] = test system: Plasmopara viticola; assay: Activity against Plasmopara viticola on potted vines; format: in vivo; settings: aqueous dispersion containing 250 ppm active ingredient, infected 8 days after spraying
Description: Leaves of potted vines of the Muller Thurgau variety were sprayed with an aqueous liquor which contained 80% of active ingredient and 20% of emulsifier in dry matter. To assess the duration of action of the active ingredient, after the sprayed-on layer had dried the plants were placed in a greenhouse for 8 days. The leaves were then infected with a suspension of Plasmopara viticola zoospores. The vines were then placed first in a chamber saturated with water vapor at 24° C. for 48 hours and then in a greenhouse at from 20° to 30° C. for 5 days. After this, to speed up sporangiophore discharge, the plants were again placed in the humidity chamber for 16 hours. The extent of fungus attack was then assessed on the undersides of the leaves.

[6] = test system: mitochondrial respiration; assay: Inhibition of mitochondrial respiration (rate of reduction of cytochrome c in isolated mitochondria), phytopathogenic fungus; format: biochemical, Drechslera sorokiniana; settings: DMSO control
Source text: as §3, §1, §2

| SMILES | fungal attack, wheat mildew [1] [%] | % inhibition of respiration at 1.8 × 10^-5 mol/l test substance, Saccharomyces cerevisiae [2] [%] | fungal attack, Pyricularia oryzae [3] [%] | % inhibition of respiration at 1.8 × 10^-5 mol/l test substance, Musca domestica [4] [%] | fungal attack, Plasmopara viticola [5] [%] | % inhibition of respiration at 1.8 × 10^-5 mol/l test substance, Drechslera sorokiniana [6] [%] |
| --- | --- | --- | --- | --- | --- | --- |
| COC(=O)/C=C(/OC)c1ccccc1/C=C\c1ccccc1C [Compound 1a.248] | 15 | 95 | 15 | – | – | – |
| C=CCON=Cc1cccc(OCc2ccccc2/C(=C\C(=O)OC)OC)c1 [Compound 1a.63] | 15 | 93 | – | 85 | 10 | – |
| CC/C(=C/C(=O)OC)c1ccccc1COc1ccccc1C [Compound 1a.110] | – | – | – | 12 | 10 | – |
| CON=C(C)c1cc(C)c(OCc2ccccc2/C(=C\C(=O)OC)OC)cc1C [Compound 1a.61] | 15 | 98 | – | 97 | 10 | – |
| COC(=O)/C=C(/OC)c1ccccc1COc1nc(-c2ccccc2)cs1 [Compound 1a.181, methyl (E)-β-methoxy-2-(4-phenyl-2-thiazolyloxymethyl)cinnamate] | – | 99 | 15 | – | – | – |
| COC(=O)/C=C(/OC)c1ccccc1/C=C/c1ccccc1C(F)(F)F [Compound 1a.243] | – | 99 | – | 89 | – | 94 |
| COC(=O)/C=C(/OC)c1ccccc1/C=C/c1cccc(C(F)(F)F)c1 [Compound 1a.245] | 15 | 98 | – | 91 | – | – |
| COC(=O)/C=C(/OC)c1ccccc1COc1ccccc1C [Compound 1a.2] | 15 | 88 | – | 21 | – | – |
| COC(=O)/C=C(/OC)c1ccccc1COc1cccc(C=NOCc2ccccc2Cl)c1 [Compound 1a.64] | – | 94 | – | 93 | – | 98 |
| COC(=O)/C=C(/OC)c1ccccc1/C=C/c1cccs1 [Compound 1a.294] | 15 | 98 | – | 95 | – | – |
| COC(=O)/C=C(/OC)c1ccccc1/C=C\c1ccc(-c2ccccc2)cc1 [Compound 1a.269, methyl 2-[2-(4-phenylphenyl)-(Z)-ethenyl]-(E)-β-methoxycinnamate] | – | 96 | – | 76 | – | 81 |
| COC(=O)/C=C(/OC)c1ccccc1/C=C\c1ccccc1[N+](=O)[O-] [Compound 1a.239] | 15 | 44 | – | 16 | – | – |
| COC(=O)/C=C(/OC)c1ccccc1CON=C(C)c1ccc(Cl)cc1 [Compound 1a.356, methyl2-[1-(4-chlorophenyl)ethylideneaminoxymethyl]-(E)-β-methoxycinnamate] | 15 | – | 15 | – | 10 | – |
| COC(=O)/C=C(/OC)c1ccccc1/C=C/c1ccn(-c2ccc(Cl)cc2)c1 [Compound 1a.304] | 15 | 97 | – | 96 | – | – |
| COC(=O)/C=C(/OC)c1ccccc1/C=C/c1coc(-c2ccc(Cl)cc2)n1 [Compound 1a.302] | – | 97 | 15 | 96 | – | – |
| CON=Cc1cccc(OCc2ccccc2/C(=C\C(=O)OC)OC)c1 [Compound 1a.62] | – | 87 | – | 74 | 10 | – |
| COC(=O)/C=C(/OC)c1ccccc1/C=C/c1csc(-c2ccc(Cl)cc2)n1 [Compound 1a.314] | – | 99 | 15 | – | – | – |
| COC(=O)/C=C(/OC)c1ccccc1/C=C/c1ccc(-c2ccccc2)cc1 [Compound 1a.268, methyl 2-[2-(4-phenylphenyl)-(E)-ethenyl]-(E)-β-methoxycinnamate] | – | 95 | – | 95 | – | 97 |
| COC(=O)/C=C(/OC)c1ccccc1COc1ccc(C(C)=NOCC(C)C)cc1C [Compound 1a.60] | 15 | 97 | – | 93 | – | 99 |
| COC(=O)/C=C(/OC)c1ccccc1/C=C/c1ccco1 [Compound 1a.290] | 15 | 98 | – | 86 | – | – |
| COC(=O)/C=C(/OC)c1ccccc1/C=C\c1cccc(C(F)(F)F)c1 [Compound 1a.246] | 15 | 84 | – | 81 | – | – |
| COC(=O)/C=C(/OC)c1ccccc1/C=C/c1ccoc1 [Compound 1a.292] | 15 | 87 | – | 61 | – | 79 |
| COC(=O)/C=C(/OC)c1ccccc1/C=C/c1ccc(Oc2ccccc2)cc1 [Compound 1a.273] | – | 95 | – | 95 | – | 96 |
| COC(=O)/C=C(/OC)c1ccccc1/C=C\c1noc(-c2ccc(Cl)cc2)c1C [Compound 1a.323] | – | 99 | – | – | 10 | – |
| COC(=O)/C=C(/OC)c1ccccc1/C=C/c1csc(-c2ccc(F)cc2)n1 [Compound 1a.394, methyl 2-{2-[2-(4-fluorophenyl)-4-thiazolyl]-(E)-ethenyl}-(E)-β-methoxycinnamate] | – | 96 | – | 99 | 10 | – |
| COC(=O)/C=C(/OC)c1ccccc1/C=C/c1ccccc1[N+](=O)[O-] [Compound 1a.238] | – | 99 | – | 87 | 10 | 74 |
